# Assay results: the supplement of paper PMC10307832
# How the values were obtained:
# Assay in all cases: relative viability (nuclei count vs DMSO), 5 days (fraction); higher = more cells survive
# QS11 + AZD7762 = compound: C1CC2=C(C1)C=C(C=C2)OC3=NC(=C4C(=N3)N(C=N4)CC5=CC=C(C=C5)C6=CC=CC=C6)N[C@@H](CC7=CC=CC=C7)CO [QS11] + NC(=O)Nc1cc(-c2cccc(F)c2)sc1C(=O)N[C@H]1CCCNC1 [AZD7762] (partner 0.2 µM)
# How it was run: (§1)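 Relative viability is defined as nuclei in treated wells over nuclei in vehicle wells. Duplicate plates were run and medians reported. Lung cancer cell lines in 1536-well plates were dosed by pin tool one day after seeding, with one drug or with a fixed anchor-drug dose plus five library-drug doses (not always all listed) in √10 steps, and nuclei were counted after 5 days.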
# AZ628 + Tozasertib = compound: CC1=C(C=C(C=C1)NC(=O)C2=CC(=CC=C2)C(C)(C)C#N)NC3=CC4=C(C=C3)N=CN(C4=O)C [AZ628] + Cc1cc(Nc2cc(N3CCN(C)CC3)nc(Sc3ccc(NC(=O)C4CC4)cc3)n2)n[nH]1 [Tozasertib] (partner 0.1 µM)
# How it was run: as §1
# AZ628 + Linsitinib = compound: CC1=C(C=C(C=C1)NC(=O)C2=CC(=CC=C2)C(C)(C)C#N)NC3=CC4=C(C=C3)N=CN(C4=O)C [AZ628] + C[C@]1(O)C[C@@H](c2nc(-c3ccc4ccc(-c5ccccc5)nc4c3)c3c(N)nccn32)C1 [Linsitinib] (partner 1 µM)
# How it was run: as §1
# AZ628 + Palbociclib = compound: CC1=C(C=C(C=C1)NC(=O)C2=CC(=CC=C2)C(C)(C)C#N)NC3=CC4=C(C=C3)N=CN(C4=O)C [AZ628] + CC(=O)c1c(C)c2cnc(Nc3ccc(N4CCNCC4)cn3)nc2n(C2CCCC2)c1=O [Palbociclib] (partner 0.5 µM)
# How it was run: as §1
cell line,measurement,setting,value
NCI-H727,relative viability,QS11 + AZD7762; first compound 0.08 µM,0.694
same,relative viability,QS11 + AZD7762; first compound 0.253 µM,0.581
same,relative viability,QS11 + AZD7762; first compound 0.8 µM,0.584
same,relative viability,QS11 + AZD7762; first compound 2.53 µM,0.727
same,relative viability,QS11 + AZD7762; first compound 8 µM,0.612
same,relative viability,AZ628 + Tozasertib; first compound 0.08 µM,0.551
same,relative viability,AZ628 + Tozasertib; first compound 0.253 µM,0.316
same,relative viability,AZ628 + Tozasertib; first compound 0.8 µM,0.32
same,relative viability,AZ628 + Tozasertib; first compound 2.53 µM,0.404
same,relative viability,AZ628 + Tozasertib; first compound 8 µM,0.274
same,relative viability,AZ628 + Linsitinib; first compound 0.08 µM,0.194
same,relative viability,AZ628 + Linsitinib; first compound 0.253 µM,0.2
same,relative viability,AZ628 + Linsitinib; first compound 0.8 µM,0.225
same,relative viability,AZ628 + Linsitinib; first compound 2.53 µM,0.282
same,relative viability,AZ628 + Linsitinib; first compound 8 µM,0.201
same,relative viability,AZ628 + Palbociclib; first compound 0.08 µM,0.553
same,relative viability,AZ628 + Palbociclib; first compound 2.53 µM,0.517
same,relative viability,AZ628 + Palbociclib; first compound 8 µM,0.363
NCI-H322M,relative viability,QS11 + AZD7762; first compound 0.08 µM,0.525
same,relative viability,QS11 + AZD7762; first compound 0.253 µM,0.515
same,relative viability,QS11 + AZD7762; first compound 0.8 µM,0.477
same,relative viability,QS11 + AZD7762; first compound 2.53 µM,0.53
same,relative viability,QS11 + AZD7762; first compound 8 µM,0.552
same,relative viability,AZ628 + Tozasertib; first compound 0.08 µM,0.468
same,relative viability,AZ628 + Tozasertib; first compound 0.253 µM,0.497
same,relative viability,AZ628 + Tozasertib; first compound 0.8 µM,0.459
same,relative viability,AZ628 + Tozasertib; first compound 2.53 µM,0.474
same,relative viability,AZ628 + Tozasertib; first compound 8 µM,0.404
same,relative viability,AZ628 + Linsitinib; first compound 0.08 µM,1.05
same,relative viability,AZ628 + Linsitinib; first compound 0.253 µM,0.939
same,relative viability,AZ628 + Linsitinib; first compound 0.8 µM,1.01
same,relative viability,AZ628 + Linsitinib; first compound 2.53 µM,0.854
same,relative viability,AZ628 + Linsitinib; first compound 8 µM,0.662
same,relative viability,AZ628 + Palbociclib; first compound 0.08 µM,0.513
same,relative viability,AZ628 + Palbociclib; first compound 0.253 µM,0.519
same,relative viability,AZ628 + Palbociclib; first compound 0.8 µM,0.466
same,relative viability,AZ628 + Palbociclib; first compound 2.53 µM,0.505
same,relative viability,AZ628 + Palbociclib; first compound 8 µM,0.449
NCI-H2126,relative viability,QS11 + AZD7762; first compound 0.08 µM,1.01
same,relative viability,QS11 + AZD7762; first compound 0.253 µM,0.999
same,relative viability,QS11 + AZD7762; first compound 0.8 µM,0.846
same,relative viability,QS11 + AZD7762; first compound 2.53 µM,1.01
same,relative viability,QS11 + AZD7762; first compound 8 µM,0.933
same,relative viability,AZ628 + Tozasertib; first compound 0.08 µM,0.899
same,relative viability,AZ628 + Tozasertib; first compound 0.253 µM,0.815
same,relative viability,AZ628 + Tozasertib; first compound 0.8 µM,0.951
same,relative viability,AZ628 + Tozasertib; first compound 2.53 µM,0.859
same,relative viability,AZ628 + Tozasertib; first compound 8 µM,0.866
same,relative viability,AZ628 + Linsitinib; first compound 0.08 µM,0.762
same,relative viability,AZ628 + Linsitinib; first compound 0.253 µM,0.746
same,relative viability,AZ628 + Linsitinib; first compound 0.8 µM,0.776
same,relative viability,AZ628 + Linsitinib; first compound 2.53 µM,0.721
same,relative viability,AZ628 + Linsitinib; first compound 8 µM,0.664
same,relative viability,AZ628 + Palbociclib; first compound 0.08 µM,0.351
same,relative viability,AZ628 + Palbociclib; first compound 0.253 µM,0.325
same,relative viability,AZ628 + Palbociclib; first compound 0.8 µM,0.323
same,relative viability,AZ628 + Palbociclib; first compound 2.53 µM,0.383
same,relative viability,AZ628 + Palbociclib; first compound 8 µM,0.32
NCI-H2405,relative viability,QS11 + AZD7762; first compound 0.08 µM,0.731
same,relative viability,QS11 + AZD7762; first compound 0.253 µM,0.747
same,relative viability,QS11 + AZD7762; first compound 0.8 µM,0.789
same,relative viability,QS11 + AZD7762; first compound 2.53 µM,1.13
same,relative viability,QS11 + AZD7762; first compound 8 µM,1.22
same,relative viability,AZ628 + Tozasertib; first compound 0.08 µM,0.5
same,relative viability,AZ628 + Tozasertib; first compound 0.253 µM,0.637
same,relative viability,AZ628 + Tozasertib; first compound 0.8 µM,0.539
same,relative viability,AZ628 + Tozasertib; first compound 2.53 µM,0.529
same,relative viability,AZ628 + Tozasertib; first compound 8 µM,0.457
same,relative viability,AZ628 + Linsitinib; first compound 0.08 µM,0.463
same,relative viability,AZ628 + Linsitinib; first compound 0.253 µM,0.646
same,relative viability,AZ628 + Linsitinib; first compound 0.8 µM,0.477
same,relative viability,AZ628 + Linsitinib; first compound 2.53 µM,0.387
same,relative viability,AZ628 + Linsitinib; first compound 8 µM,0.409
same,relative viability,AZ628 + Palbociclib; first compound 0.08 µM,0.4
same,relative viability,AZ628 + Palbociclib; first compound 0.253 µM,0.4
same,relative viability,AZ628 + Palbociclib; first compound 0.8 µM,0.347
same,relative viability,AZ628 + Palbociclib; first compound 2.53 µM,0.35
same,relative viability,AZ628 + Palbociclib; first compound 8 µM,0.353
NCI-H1944,relative viability,QS11 + AZD7762; first compound 0.08 µM,0.49
same,relative viability,QS11 + AZD7762; first compound 0.253 µM,0.519
same,relative viability,QS11 + AZD7762; first compound 2.53 µM,0.421
same,relative viability,QS11 + AZD7762; first compound 8 µM,0.39
same,relative viability,AZ628 + Tozasertib; first compound 0.08 µM,0.26
same,relative viability,AZ628 + Tozasertib; first compound 0.253 µM,0.227
same,relative viability,AZ628 + Tozasertib; first compound 0.8 µM,0.235
same,relative viability,AZ628 + Tozasertib; first compound 2.53 µM,0.249
same,relative viability,AZ628 + Tozasertib; first compound 8 µM,0.209
same,relative viability,AZ628 + Linsitinib; first compound 0.08 µM,1.21
same,relative viability,AZ628 + Linsitinib; first compound 0.253 µM,1.14
same,relative viability,AZ628 + Linsitinib; first compound 0.8 µM,0.987
same,relative viability,AZ628 + Linsitinib; first compound 2.53 µM,0.876
same,relative viability,AZ628 + Linsitinib; first compound 8 µM,0.703
same,relative viability,AZ628 + Palbociclib; first compound 0.08 µM,0.359
same,relative viability,AZ628 + Palbociclib; first compound 0.253 µM,0.312
same,relative viability,AZ628 + Palbociclib; first compound 0.8 µM,0.305
same,relative viability,AZ628 + Palbociclib; first compound 2.53 µM,0.311
same,relative viability,AZ628 + Palbociclib; first compound 8 µM,0.229
EKVX,relative viability,QS11 + AZD7762; first compound 0.08 µM,0.693
same,relative viability,QS11 + AZD7762; first compound 0.253 µM,0.743
same,relative viability,QS11 + AZD7762; first compound 0.8 µM,0.627
same,relative viability,QS11 + AZD7762; first compound 2.53 µM,0.649
same,relative viability,QS11 + AZD7762; first compound 8 µM,0.755
same,relative viability,AZ628 + Tozasertib; first compound 0.08 µM,0.396
same,relative viability,AZ628 + Tozasertib; first compound 0.253 µM,0.381
same,relative viability,AZ628 + Tozasertib; first compound 0.8 µM,0.392
same,relative viability,AZ628 + Tozasertib; first compound 2.53 µM,0.467
same,relative viability,AZ628 + Tozasertib; first compound 8 µM,0.233
same,relative viability,AZ628 + Linsitinib; first compound 0.08 µM,1.18
same,relative viability,AZ628 + Linsitinib; first compound 0.253 µM,0.922
same,relative viability,AZ628 + Linsitinib; first compound 0.8 µM,1
same,relative viability,AZ628 + Linsitinib; first compound 2.53 µM,1.03
same,relative viability,AZ628 + Linsitinib; first compound 8 µM,0.824
same,relative viability,AZ628 + Palbociclib; first compound 0.08 µM,0.393
same,relative viability,AZ628 + Palbociclib; first compound 0.253 µM,0.374
same,relative viability,AZ628 + Palbociclib; first compound 0.8 µM,0.478
same,relative viability,AZ628 + Palbociclib; first compound 2.53 µM,0.452
same,relative viability,AZ628 + Palbociclib; first compound 8 µM,0.3
